Structures can show the parent of a compound that is named as a salt.
What was measured:
[1] = target: nicotinic receptors containing the α4β2 subunit (Rattus norvegicus, UniProt P09483+P12390); test: [3H]-cytisine binding to rat brain membranes, affinity for α4β2 nicotinic receptors; conditions: inhibition of specific binding of 1 nM [3H]-cytisine, rat whole brain membranes
Description: For instance, they were studied with regard to their affinity for nicotinic receptors containing the α4β2 subunit in accordance with the methods described by Anderson and Arneric in Eur. J. Pharmacol. 1994, 253, 261 and by Hall et al. in Brain Res. 1993, 600, 127. Male Sprague Dawley rats weighing 150 to 200 g are decapitated and the whole brain is removed rapidly, homogenized in 15 volumes of 0.32 M sucrose solution at […] and then centrifuged at 1000 G for 10 min. The pellet is discarded and the supernatant is centrifuged at 20,000 G at 4° C. for 20 min. The pellet is recovered and homogenized using a Polytron™ mill in 15 volumes of double-distilled water at 4° C., then centrifuged at 8,000 G for 20 min. […]
On the day of the experiment the tissue is slowly thawed and is suspended in 3 volumes of buffer. […] The reaction is stopped by filtration on Whatman GF/B™ filters pretreated with polyethyleneimine, the filters are rinsed with twice 5 ml of buffer at 4° C. and the radioactivity retained on the filter is measured by liquid scintigraphy. The non-specific binding is determined in the presence of 10 μM (−)-nicotine; the nonspecific binding represents 75% to 85% of the total binding recovered on the filter. […]

[2] = target: nicotinic receptors containing the α7 subunit (Rattus norvegicus, UniProt Q05941); test: biochemical; assay type: binding
nicotinic receptors containing the α7 subunit, sequence (Q05941 23-502): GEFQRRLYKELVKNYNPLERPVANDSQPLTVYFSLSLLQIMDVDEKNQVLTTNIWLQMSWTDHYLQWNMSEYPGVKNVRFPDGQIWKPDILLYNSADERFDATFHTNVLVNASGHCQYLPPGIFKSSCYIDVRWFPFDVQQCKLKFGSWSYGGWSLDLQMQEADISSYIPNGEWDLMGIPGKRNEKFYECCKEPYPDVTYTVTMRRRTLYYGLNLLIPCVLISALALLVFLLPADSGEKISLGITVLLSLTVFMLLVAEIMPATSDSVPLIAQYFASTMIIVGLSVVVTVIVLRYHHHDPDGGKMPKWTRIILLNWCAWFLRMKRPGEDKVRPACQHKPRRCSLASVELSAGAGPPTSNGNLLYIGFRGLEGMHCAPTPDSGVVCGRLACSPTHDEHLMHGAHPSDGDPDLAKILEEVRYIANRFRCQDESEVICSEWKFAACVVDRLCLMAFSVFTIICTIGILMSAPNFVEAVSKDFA

nicotinic receptors containing the α4β2 subunit, sequence (P09483 31-630): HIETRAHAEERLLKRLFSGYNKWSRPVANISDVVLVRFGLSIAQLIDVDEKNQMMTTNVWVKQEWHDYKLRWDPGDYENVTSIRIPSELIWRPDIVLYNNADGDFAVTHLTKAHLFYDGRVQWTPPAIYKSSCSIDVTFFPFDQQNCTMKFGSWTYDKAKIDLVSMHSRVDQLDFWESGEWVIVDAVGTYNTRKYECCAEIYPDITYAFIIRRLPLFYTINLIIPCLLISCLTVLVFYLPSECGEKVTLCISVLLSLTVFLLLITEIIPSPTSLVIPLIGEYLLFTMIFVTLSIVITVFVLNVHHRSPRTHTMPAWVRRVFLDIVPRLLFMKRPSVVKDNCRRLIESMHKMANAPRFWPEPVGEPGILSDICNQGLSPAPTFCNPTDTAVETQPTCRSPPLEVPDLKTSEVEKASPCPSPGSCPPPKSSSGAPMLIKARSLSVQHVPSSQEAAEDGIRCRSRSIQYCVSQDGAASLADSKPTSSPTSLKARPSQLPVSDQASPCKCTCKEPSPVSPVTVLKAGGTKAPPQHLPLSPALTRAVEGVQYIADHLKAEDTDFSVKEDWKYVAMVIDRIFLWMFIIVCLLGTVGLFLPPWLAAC
nicotinic receptors containing the α4β2 subunit, sequence (P12390 25-500): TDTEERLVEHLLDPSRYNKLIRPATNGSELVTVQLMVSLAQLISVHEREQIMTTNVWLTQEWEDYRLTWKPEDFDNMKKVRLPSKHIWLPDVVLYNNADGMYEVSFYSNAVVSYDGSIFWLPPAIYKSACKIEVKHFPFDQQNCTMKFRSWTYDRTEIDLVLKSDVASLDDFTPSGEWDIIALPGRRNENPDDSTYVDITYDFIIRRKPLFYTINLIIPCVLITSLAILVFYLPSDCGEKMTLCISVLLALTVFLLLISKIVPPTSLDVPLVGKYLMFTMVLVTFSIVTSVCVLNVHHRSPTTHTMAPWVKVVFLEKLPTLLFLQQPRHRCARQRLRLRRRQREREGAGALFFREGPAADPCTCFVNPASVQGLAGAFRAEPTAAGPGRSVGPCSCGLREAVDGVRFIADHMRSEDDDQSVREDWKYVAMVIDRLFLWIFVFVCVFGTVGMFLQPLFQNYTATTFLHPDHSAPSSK

| SMILES | IC50 [1] [nM] | IC50 [2] [nM] |
| --- | --- | --- |
| Cc1ccc2c(C(=O)N3CCN4CCC3C4)n[nH]c2n1 (racemic) [Compound 1, 3-(1,4-Diazabicyclo[3.2.1]oct-4-ylcarbonyl)-6-methyl-1H-pyrazolo[3,4-b]pyridine hydrobromide 2:1] | > 10000 | 56 |
| O=C(c1n[nH]c2ccc(F)cc12)N1CCN2CCC1C2 (racemic) [Compound 4, 3-(1,4-Diazabicyclo[3.2.1]oct-4-ylcarbonyl)-5-fluoro-1H-indazole hydrobromide 2:1] |  | 55 |

Source: patent publication US7589201B2, “Derivatives of 1,4-diazabicyclo[3.2.1]octanecarboxamide, preparation method thereof and use of same in therapeutics” (Sanofi-Aventis, priority 2004, dated 2009)
